Experimental findings from patent US20250008959A1, “HERBICIDES AND USE THEREOF” (Projini Agchem LTD, priority 2021, published 2025) are described below.

Read-outs that look alike come from different tables or passages of the source.

As usually defined, the inhibition is the drop in the measured response relative to a control, in per cent. The IC50 is the point on the concentration scale where inhibition reaches its midpoint. The term Kd denotes the free concentration of one partner at which half of the binding sites on the other are occupied at equilibrium, for simple one-to-one binding.

Test [1] concerns Arabidopsis thaliana. The test can be described thus: Root elongation in plates (in planta root elongation assay). Type of test: in vivo. The settings on record: 168 h, A. thaliana on MS medium plates, 7 days, read-out: Root-growth inhibition %.
The target of test [2] is T1, OASS-SAT complex (AtOASS with SAT-derived peptide) (Arabidopsis thaliana, UniProt P47998).
T1 construct: GST (N, cleaved yes); made in house; host or cells: E. coli Rosetta (DE3)
The test can be described thus: Fluorescence polarization (FP) competition with FITC-labeled SAT-derived peptide bound to OASS. The settings on record: competition with FITC-SAT peptide 200 nM, OASS 2.2 μM; for IC50: single site inhibition model. Type of test: binding. Background: Fluorescence polarisation rises when a labelled molecule tumbles more slowly, as on binding a larger partner.

In another test the test system is Amaranthus palmeri. In words: Pre-emergence assay in pots. It counts as in vivo. Particulars: pots sprayed with 2 ml, 5 mM, monitored 21 days. The procedure: (§1) 7×7 cm pots were prepared with 20% soil and 80% sand. Trifolium alexandrium (16 seeds), Lolium rigidum (25 seeds), Solanum nigrum (25 seeds), Amaranthus palmeri (40 seeds) or Sinapis arvensis (12 seeds) were sowed and 2 cm of strained sand was used to cover the seeds. The pots were placed in the growth room under a lighting regime of 16 hours of light and 8 hours in the dark at 23° C. The day after (except for the Solanum and Amaranthus 4-5 days after), the pots were sprayed in a chemical hood at a 45° angle with 2 ml spray solution containing 1:10 acetone or phosphate buffer dissolved active ingredient in tap water to a final concentration of 5 mM. Every 2-3 days the pots were irrigated with tap water.
(§2) Pre-emergence herbicidal activity was determined by monitoring plant growth in pots. Molecules were dissolved at the indicated concentrations below and volume of 2 ml was sprayed onto the soil, and plant growth was monitored for 21 days.

Test [3] deals with T2, AtOASS (O-acetyl serine sulfhydrylase from Arabidopsis thaliana) (Arabidopsis thaliana, UniProt P47998).
T2 construct: GST (N, cleaved yes); made in house; host or cells: E. coli Rosetta (DE3)
The test can be described thus: Isothermal titration calorimetry (ITC) binding to OASS. Particulars: OASS titrated into compound in ITC cell; single binding model. An excerpt:
To evaluate the ability of the molecules to bind AtOASS (O-acetyl serine sulfhydrylase from Arabidopsis thaliana), the protein was placed in the ITC syringe and was titrated with the molecules that were placed in the ITC cell (see Examples section below). The direct dissociation binding constant (Kd) was then extracted from the binding curve using a single binding model, wherein a low Kd value corresponds to a stronger binding affinity.
To evaluate the binding of the small molecules to the enzyme OASS, the purified protein was placed in a 6-8 MWCO dialysis bag in 30 mM phosphate buffer, 30 mM NaCl, 1 mM TCEP, and 5% dimethyl sulfoxide. Sequential buffer exchange dialyses were executed for 12 hours each at 4° C. until dilution of >10,000 was achieved. Before the execution of the ITC binding experiment, the OASS was placed in the ITC syringe at a concentration of 400 μM and each of the small molecules was dissolved in the same dialysis buffer to a final concentration of 40 μM in the ITC cell. ITC experiments were conducted by titrating the OASS to the compounds in the cell. The ITC binding constant was evaluated using the build-in analysis software.
The designed de-novo herbicidal compounds were synthesized and evaluated for their in vitro and in planta activity. After dissolving the molecules to a stock of 50 mM in DMSO, binding and competition with the SAT-derived peptides were evaluated using ITC and FP. ITC measures the direct heat change occurring due to the interaction of a pair of molecules. ITC has certain advantages, such as the capability to detect a relatively broad range of binding affinities, being a label-free method, and providing a wide set of interaction parameters, such as affinity, stoichiometry, enthalpy, and entropy of binding. To evaluate the ability of the molecules to bind AtOASS, the protein was placed in the ITC syringe and was titrated with the molecules that were placed in the ITC cell. The direct dissociation binding constant (Kd) was then extracted from the binding curve using a single binding model. Two consecutive experiments were combined using the built in ITC module to enable better quantification. A low Kd value corresponds to a stronger binding affinity.
Background: ITC needs no label: the signal is the heat of the interaction.

The subject of another test is Trifolium alexandrium. The test can be described thus: Pre-emergence assay in pots. It counts as in vivo. Particulars: pots sprayed with 2 ml, 5 mM, monitored 21 days. The procedure: as §1, §2
The test system of the next test is Sinapis arvensis. In words: Pre-emergence assay in pots. Type of test: in vivo. Particulars: pots sprayed with 2 ml, 5 mM, monitored 21 days. The procedure:
as §1, §2

A further test concerns Solanum nigrum. In words: Pre-emergence assay in pots. Type of test: in vivo. The settings on record: pots sprayed with 2 ml, 5 mM, monitored 21 days. Here is the method: as §1, §2
Test [4] relates to Arabidopsis thaliana. The test can be described thus: L-cysteine recovery root elongation assay. Type of test: in vivo. The settings on record: for IC50: Arabidopsis thaliana, read-out: IC50 of A. thaliana growth inhibition. The procedure: For the L-cysteine recovery root elongation assay, 6-well plates were prepared in a biological hood with sterile half Murashige and Skoog mineral medium (MS; Duchefa, Haarlem, Netherlands) containing 1% sucrose (w/v), pH 5.8. A stock of 10 mM L-cysteine in DDW was prepared and diluted to a final concentration of 0.03 mM into the MS medium in the presence of 25 to 1.56 μM of PJL 109. The MS medium maintained a final concentration of 0.1% DMSO. MS medium with 0.1% DMSO and 0.03 mM L-cysteine was used as a negative control. After 7 days the plates were scanned and the root length was calculated using the imageJ software.
Arabidopsis thaliana seeds were washed with 70% ethanol for 1 minute and then with sterile water. Further sterilization was done by washing the seeds with 50% hypochlorite and 0.2% Triton x-100 for 10 minutes followed by five cycles of washing with sterile water. Six seeds were placed in each well, and the plates were covered and sealed with parafilm. Plates were placed vertically at 4° C. for two days and then transferred to a growth chamber for seven days (22-24° C.) at day/light cycles of 16/8 hours.

Another test relates to Lolium rigidum. In words: Pre-emergence assay in pots. Type of test: in vivo. Particulars: pots sprayed with 2 ml, 5 mM, monitored 21 days. The procedure:
as §1, §2

T2 sequence (P47998 whole entry): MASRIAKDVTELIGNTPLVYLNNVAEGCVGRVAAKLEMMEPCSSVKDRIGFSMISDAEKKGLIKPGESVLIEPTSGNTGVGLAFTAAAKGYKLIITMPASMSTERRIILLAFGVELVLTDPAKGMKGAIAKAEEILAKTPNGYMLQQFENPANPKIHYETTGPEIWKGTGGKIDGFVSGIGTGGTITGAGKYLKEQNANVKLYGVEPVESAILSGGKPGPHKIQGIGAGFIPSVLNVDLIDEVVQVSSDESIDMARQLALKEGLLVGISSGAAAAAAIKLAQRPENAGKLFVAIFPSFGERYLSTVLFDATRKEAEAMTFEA
T1 sequence (P47998 whole entry, one chain of several): as the sequence (P47998 whole entry) above

On to `O=C(O)c1cc(F)ccc1NS(=O)(=O)c1cnc(-c2ccccc2)s1` [PJL-47], for which the inhibition at 50 µM in the test with Arabidopsis thaliana [1] turned out to be 88%. Further, in test [2], the FP % inhibition amounted to 16% and the IC50 came to 68 µM. In addition, in the test with Amaranthus palmeri, the “Pre-emergence assay Germination inhibition on (%)” value was 66% and the “Pre-emergence assay Growth inhibition on (%)” value was found to be 20%. The same compound had a Kd in test [3] of 6 µM.

On to `COc1ccc(-c2csc(NC(=O)c3ccccc3-c3ccccc3C(=O)O)n2)cc1` [PJL-61], for which the inhibition at 50 µM in the test with Arabidopsis thaliana [1] turned out to be 95%. Further, in [2], the FP % inhibition was 43% and the IC50 came to 4.7 µM. In addition, in the test on Amaranthus palmeri, the “Pre-emergence assay Germination inhibition on (%)” value turned out to be 33% and the “Pre-emergence assay Growth inhibition on (%)” value is reported as 0%. In addition, in the test with Trifolium alexandrium, the “Pre-emergence assay Germination inhibition on (%)” value stood at 70% and the “Pre-emergence assay Growth inhibition on (%)” value came to 60%. For the same compound, the Kd in test [3] was determined as 0.4 µM.

For the compound `COc1ccc(C(=O)O)c(NS(=O)(=O)c2cnc(-c3ccc(F)cc3)s2)c1` [PJL-79], in the test on Arabidopsis thaliana [1], the inhibition at 50 µM amounted to 97%. In test [2], the FP % inhibition is listed as 18% and the IC50 turned out to be 55 µM. Also, in the test with Sinapis arvensis, the “Pre-emergence assay Germination inhibition on (%)” value was found to be 95% and the “Pre-emergence assay Growth inhibition on (%)” value amounted to 90%. This compound also registered a Kd in [3] of 7.1 µM.

`O=C(O)c1ccccc1-c1ccccc1C(=O)Nc1nc(-c2ccc(Cl)cc2Cl)cs1` [PJL-109]: the inhibition at 50 µM with Arabidopsis thaliana [1] turned out to be 89%. In addition, in test [2], the FP % inhibition was 48% and the IC50 is 5.4 µM. For the same compound, in the test with Solanum nigrum, the “Pre-emergence assay Germination inhibition on (%)” value came to 63% and the “Pre-emergence assay Growth inhibition on (%)” value amounted to 0%. Also, the Kd in test [3] was 0.07 µM. Also, the “effect of added cysteine on the inhibition by the compound” value in the test on Arabidopsis thaliana [4] (0.03 mM L-cysteine on agar plates, dose-response, result in words) is recorded as “partially reverses the germination inhibition effect”. Further, the IC50 in the test with Arabidopsis thaliana [4] (0 mM L-cysteine (no external addition of cysteine)) came to 1.7 µM. For the same compound, in the test on Arabidopsis thaliana [4] (0.03 mM L-cysteine in the medium), the IC50 came out at 4.9 µM.

For `COc1ccc(-c2csc(NC(=O)c3ccccc3-c3ccccc3C(=O)O)n2)c(Cl)c1` [PJL-116], the inhibition at 50 µM in the test on Arabidopsis thaliana [1] worked out at 92%. Also, in [2], the FP % inhibition is recorded as 41% and the IC50 was determined as 3.6 µM. Further, in the test with Trifolium alexandrium, the “Pre-emergence assay Germination inhibition on (%)” value turned out to be 75% and the “Pre-emergence assay Growth inhibition on (%)” value was found to be 80%. Also, the affinity in test [3], expressed as Kd, was 0.5 µM.

As to `O=C(O)c1ccccc1-c1ocnc1C(=O)Nc1nc(-c2ccc(Cl)cc2Cl)cs1` [PJL-117], the inhibition at 50 µM in the test on Arabidopsis thaliana [1] was found to be 100%. Besides, in [2], the FP % inhibition was determined as 10% and the IC50 came out at 248 µM. For the same compound, in the test with Lolium rigidum, the “Pre-emergence assay Germination inhibition on (%)” value is on record as 0% and the “Pre-emergence assay Growth inhibition on (%)” value turned out to be 60%. Besides, in the test on Sinapis arvensis, the “Pre-emergence assay Germination inhibition on (%)” value is recorded as 90% and the “Pre-emergence assay Growth inhibition on (%)” value worked out at 80%.

For the compound `O=C(O)c1ccccc1-c1ccccc1C(=O)Nc1cccc(C(F)(F)F)c1` [PJS-212], in the test with Arabidopsis thaliana [1], the inhibition at 50 µM was found to be 34%. In addition, in [2], the FP % inhibition is 34% and the IC50 turned out to be 10.6 µM. For the same compound, the Kd in test [3] came to 8.11 µM.
